In US8512757B2, “Micelles for drug delivery” (Agency for Science, Techology and Research, priority 2006, dated 2013):

Experiments:
4T1 cells = assay: Cellular distribution and uptake of DOX by confocal microscopy; format: cell-based, mouse; settings: DOX 10 mg/L, 4 hours
Protocol: Free DOX (10 mg/L) and DOX-loaded micelles (DOX content: 10 mg/L) in RPMI 1640 medium (without folate) were incubated with 4T1 cells for 4 hours before examination. The cells on the cover glass were thoroughly washed three times with PBS and visualized by CLSM (Olympus FV300, Japan). DOX was excited at 532 nm with emission at 595 nm. The laser power was 10%. All the observations were conducted using the same resolution.

[1] = system: 4T1 mouse breast cancer cells; assay: Cytotoxicity test (MTT); format: cell-based; settings: 4T1 cells, 48 hours, 37° C.
Protocol: 4T1 mouse breast cancer cells were cultured in RPMI 1640 (without folate) supplemented with 10% FBS, 5% penicillin, 2 mM L-glutamine (Sigma), and incubated at 37° C., 5% CO2. The cells were seeded onto 96-well plates at 10,000 cells per well, and incubated for one day. […] The media in the wells were replaced with 100 μL of the pre-prepared samples. The plates were then returned to the incubator and maintained in 5% CO2, at 37° C. for 48 hours. Fresh growth media and 10 μL aliquots of MTT solution were used to replace the mixture in each well after 48 hours. The plates were then returned to the incubator and maintained in 5% CO2, at 37° C., for a further 3 hours. The growth medium and excess MTT in each well were then removed. DMSO (150 μL) was then added to each well to dissolve the internalised purple formazan crystals. An aliquot of 100 μL was taken from each well and transferred to a fresh 96-well plate. Each sample was tested in eight replicates per plate. Three plates were used, making a total of 24 replicates per sample. The plates were then assayed at 550 nm and 690 nm. The absorbance readings of the formazan crystals were taken to be that at 550 nm subtracted by that at 690 nm. The results were expressed as a percentage of the absorbance of the blank control.

[2] = Biodistribution in mice bearing subcutaneous 4T1 breast tumours; format: in vivo; settings: 5 mg/kg DOX
Protocol: Female balb/c (body weight: 19-21 g) were subcutaneously implanted with 4T1 cells (10^7 cells per animal). Tumours were allowed to grow for 2 weeks. Free DOX and DOX-loaded micelles were administrated to the animals by tail vein injection at an equivalent DOX dose of 5 mg/kg. At 10 minutes, 30, minutes, 2 hours and 4 hours, blood samples were taken, and the animals were sacrificed. The liver, lung, heart, spleen, kidney and tumour were removed, and kept at −80° C. for future analysis. The organs were weighted and homogenized. DOX distributed in different organs was extracted using chloroform and isopropanol, and analyzed as described by H. S. Yoo, T. G. Park, J. Control. Rel. 2004, 100, 247. Homogenized tissue was added into an acidic hydrolysis buffer containing 2.0 M HCl solution at 80° C. for 10 minutes. The supernatant was collected, and 0.9 mL of the mixture of chloroform and isopropanol (3:1 in volume) was then added. After vortex-mixing, the organic layer was collected by centrifugation at 16,000 rpm for 15 minutes at room temperature. The solution was dried, and re-dissolved in a mobile phase and analyzed by high performance liquid chromatography (HPLC). The recovery rate was 70%, and corrected by an internal standard. The HPLC system consisted of a Waters 2690 separation module and Waters 2475 multi λ fluorescence detector. […] The DOX peak was detected at an excitation wavelength of 480 nm and an emission wavelength of 580 nm.

[3] = tail vein injection, 4T1 tumour

In the case of `COc1cccc2c1C(=O)c1c(O)c3c(c(O)c1C2=O)C[C@@](O)(C(=O)CO)C[C@@H]3O[C@H]1C[C@H](N)[C@H](O)[C@H](C)O1.Cl` [free DOX, Doxorubicin hydrochloride], the “cellular distribution of DOX” value (4T1 cells) is reported as “only accumulated in the nucleus”, the “IC50 value of DOX” value [1] is reported as 3.0 µg/mL and the “organ distribution of DOX” value ([2]; spleen, kidney, heart, liver and lung) is reported as “accumulating uniformly in the heart, lung and liver”. The “t1/2 in the blood” value ([2]; tail vein injection) was “about 30 minutes”, the “maximum DOX level in tumour tissue” value [2, 3] was 2.9 µg/g and the “time at which maximum DOX level in tumour was reached” value [2, 3] was 30 min. For the same compound, the “DOX level in tumour tissue at 240 minutes” value ([2]; tail vein injection, 240 minutes) was 1.0 µg/g.
